Source: PubChem BioAssay (NCI)
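1) Cells in 96-well plates. 2) Compound, 48 h, 5 concentrations. 3) Linear interpolation between surrounding doses. 4) Unreached endpoint = highest concentration. Definition used: TGI = concentration required for complete inhibition of growth.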

Experiments:
Test in all cases: NCI anticancer screen, dose series, 48 h
NCI-H460 lung = system: NCI-H460 lung
PC-3 prostate = system: PC-3 prostate
UO-31 renal = system: UO-31 renal
SK-MEL-28 melanoma = system: SK-MEL-28 melanoma
CAKI-1 renal = system: CAKI-1 renal
HT29 colon = system: HT29 colon
SK-MEL-2 melanoma = system: SK-MEL-2 melanoma
SF-539 CNS = system: SF-539 CNS
TK-10 renal = system: TK-10 renal
K-562 leukemia = system: K-562 leukemia
DU-145 prostate = system: DU-145 prostate
COLO 205 colon = system: COLO 205 colon
UACC-257 melanoma = system: UACC-257 melanoma
OVCAR-8 ovarian = system: OVCAR-8 ovarian
NCI-H226 lung = system: NCI-H226 lung
HCC-2998 colon = system: HCC-2998 colon
SK-OV-3 ovarian = system: SK-OV-3 ovarian
RXF 393 renal = system: RXF 393 renal
KM12 colon = system: KM12 colon
SNB-19 CNS = system: SNB-19 CNS
NCI-H23 lung = system: NCI-H23 lung
UACC-62 melanoma = system: UACC-62 melanoma
786-0 renal = system: 786-0 renal
SW-620 colon = system: SW-620 colon
U251 CNS = system: U251 CNS
HCT-15 colon = system: HCT-15 colon
ACHN renal = system: ACHN renal
IGROV1 ovarian = system: IGROV1 ovarian
SNB-75 CNS = system: SNB-75 CNS
SF-268 CNS = system: SF-268 CNS
RPMI-8226 leukemia = system: RPMI-8226 leukemia
HOP-62 NSCLC = system: HOP-62 NSCLC
NCI/ADR-RES ovarian = system: NCI/ADR-RES ovarian
LOX IMVI melanoma = system: LOX IMVI melanoma
HS 578T breast = system: HS 578T breast
T-47D breast = system: T-47D breast
A498 renal = system: A498 renal
MDA-MB-435 = system: MDA-MB-435
EKVX NSCLC = system: EKVX NSCLC
M14 melanoma = system: M14 melanoma
MCF7 breast = system: MCF7 breast
HL-60(TB) leukemia = system: HL-60(TB) leukemia
HCT-116 colon = system: HCT-116 colon
CCRF-CEM leukemia = system: CCRF-CEM leukemia
SR leukemia = system: SR leukemia
SK-MEL-5 melanoma = system: SK-MEL-5 melanoma
BT-549 breast = system: BT-549 breast
HOP-92 NSCLC = system: HOP-92 NSCLC
SF-295 CNS = system: SF-295 CNS
OVCAR-4 ovarian = system: OVCAR-4 ovarian
MDA-MB-231 breast = system: MDA-MB-231 breast

`CCOC(=O)C(C)c1nc2cc3cccnc3c(Cl)c2[nH]c1=O` (stereo unspecified) was tested, and the TGI (NCI-H460 lung) was greater than 100 µM, the TGI (PC-3 prostate) was greater than 100 µM and the TGI (UO-31 renal) was greater than 100 µM. For the same compound, the TGI (SK-MEL-28 melanoma) was greater than 100 µM, the TGI (CAKI-1 renal) was greater than 100 µM and the TGI (HT29 colon) was greater than 100 µM. The TGI (SK-MEL-2 melanoma) was greater than 100 µM, the TGI (SF-539 CNS) was greater than 100 µM and the TGI (TK-10 renal) was greater than 100 µM. The TGI (K-562 leukemia) was greater than 100 µM, the TGI (DU-145 prostate) was 50 µM and the TGI (COLO 205 colon) was greater than 100 µM. It also gave a TGI (UACC-257 melanoma) greater than 100 µM, a TGI (OVCAR-8 ovarian) greater than 100 µM and a TGI (NCI-H226 lung) greater than 100 µM. The TGI (HCC-2998 colon) was greater than 100 µM, the TGI (SK-OV-3 ovarian) was greater than 100 µM and the TGI (RXF 393 renal) was greater than 100 µM. The TGI (KM12 colon) was greater than 100 µM, the TGI (SNB-19 CNS) was greater than 100 µM and the TGI (NCI-H23 lung) was greater than 100 µM. It also gave a TGI (UACC-62 melanoma) greater than 100 µM, a TGI (786-0 renal) greater than 100 µM and a TGI (SW-620 colon) greater than 100 µM. For the same compound, the TGI (U251 CNS) was greater than 100 µM, the TGI (HCT-15 colon) was greater than 100 µM and the TGI (ACHN renal) was greater than 100 µM. For the same compound, the TGI (IGROV1 ovarian) was greater than 100 µM, the TGI (SNB-75 CNS) was greater than 100 µM and the TGI (SF-268 CNS) was greater than 100 µM. It also gave a TGI (RPMI-8226 leukemia) greater than 100 µM, a TGI (HOP-62 NSCLC) greater than 100 µM and a TGI (NCI/ADR-RES ovarian) greater than 100 µM. It also gave a TGI (LOX IMVI melanoma) greater than 100 µM, a TGI (HS 578T breast) greater than 100 µM and a TGI (T-47D breast) greater than 100 µM. The TGI (A498 renal) was greater than 100 µM, the TGI (MDA-MB-435) was greater than 100 µM and the TGI (EKVX NSCLC) was greater than 100 µM. For the same compound, the TGI (M14 melanoma) was greater than 100 µM, the TGI (MCF7 breast) was greater than 100 µM and the TGI (HL-60(TB) leukemia) was greater than 100 µM. For the same compound, the TGI (HCT-116 colon) was greater than 100 µM, the TGI (CCRF-CEM leukemia) was greater than 100 µM and the TGI (SR leukemia) was greater than 100 µM. It also gave a TGI (SK-MEL-5 melanoma) greater than 100 µM, a TGI (BT-549 breast) greater than 100 µM and a TGI (HOP-92 NSCLC) greater than 100 µM. The TGI (SF-295 CNS) was greater than 100 µM, the TGI (OVCAR-4 ovarian) was greater than 100 µM and the TGI (MDA-MB-231 breast) was greater than 100 µM.
